Tests used:
[1] = molecular target: T1, C-X-C chemokine receptor type 2 (Homo sapiens, UniProt P25025); assay: Displacement of [125I]IL8 from CXCR2 expressed in CHO cells; type: cell-based
T1 sequence (P25025 whole entry): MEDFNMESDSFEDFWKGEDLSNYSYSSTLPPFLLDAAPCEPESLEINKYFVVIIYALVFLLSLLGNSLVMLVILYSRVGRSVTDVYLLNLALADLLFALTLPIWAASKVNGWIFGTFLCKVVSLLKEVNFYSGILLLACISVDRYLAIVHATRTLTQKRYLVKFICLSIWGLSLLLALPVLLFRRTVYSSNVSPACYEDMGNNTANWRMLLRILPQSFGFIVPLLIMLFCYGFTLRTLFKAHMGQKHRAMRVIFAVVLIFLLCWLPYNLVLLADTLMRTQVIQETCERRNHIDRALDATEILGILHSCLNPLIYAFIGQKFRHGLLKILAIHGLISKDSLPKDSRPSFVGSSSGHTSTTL

[2] = molecular target: T2, C-X-C chemokine receptor type 1 (Homo sapiens, UniProt P25024); assay: Displacement of [125I]IL8 from CXCR1 expressed in CHO cells; type: cell-based
T2 sequence (P25024 whole entry): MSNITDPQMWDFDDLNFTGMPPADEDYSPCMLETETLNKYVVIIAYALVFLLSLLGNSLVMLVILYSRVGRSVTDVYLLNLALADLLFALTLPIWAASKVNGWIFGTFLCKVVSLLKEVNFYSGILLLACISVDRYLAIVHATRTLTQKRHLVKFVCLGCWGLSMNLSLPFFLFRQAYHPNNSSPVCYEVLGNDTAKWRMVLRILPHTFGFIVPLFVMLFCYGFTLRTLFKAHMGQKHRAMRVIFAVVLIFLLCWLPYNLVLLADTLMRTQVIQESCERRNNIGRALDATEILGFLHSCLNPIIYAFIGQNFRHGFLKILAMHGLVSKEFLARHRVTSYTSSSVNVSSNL

[3] = Dissociation constant, pKa of the compound; type: physicochemical
[4] = molecular target: Interleukin-8 receptors, CXCR1/CXCR2 (Homo sapiens) (UniProt P25025+P25024); assay: Selectivity for CXCR2 over CXCR1; type: protein assay

SMILES | IC50 [1] | IC50 [2] | pKa [3] | Ratio IC50 [4]
CN(C)S(=O)(=O)c1c(Cl)ccc(N/C(=N/C#N)Nc2ccccc2Br)c1O | 5 nM (antagonist) | 55 nM (antagonist) | – | –
CN(C)S(=O)(=O)c1c(Cl)ccc(N/C(=N/C#N)Nc2ccccc2-c2ccccc2)c1O | 13 nM (antagonist) | 752 nM (antagonist) | – | –
CN(C)S(=O)(=O)c1c(C(F)(F)F)ccc(N/C(=N/C#N)Nc2ccccc2Br)c1O | 7 nM (antagonist) | 100 nM (antagonist) | – | –
Cc1ccc(N=C(NC#N)Nc2ccccc2Br)c(O)c1S(=O)(=O)N(C)C | 7 nM (antagonist) | 187 nM (antagonist) | – | –
CCC(CC)(NS(=O)(=O)c1c(Cl)ccc(N/C(=N/C#N)Nc2ccccc2Br)c1O)N1C[C@@H](C)O[C@@H](C)C1 | 9 nM (antagonist) | 215 nM (antagonist) | 6.41 | –
CN(C)S(=O)(=O)c1c(Cl)ccc(N=C(NC#N)Nc2cccc(Cl)c2F)c1O | 29 nM (antagonist) | 6200 nM | – | –
CN(C)S(=O)(=O)c1c(Cl)ccc(N=C(NC#N)Nc2ccccc2F)c1O | 9 nM (antagonist) | 1550 nM | – | –
CCc1ccccc1NC(=Nc1ccc(Cl)c(S(=O)(=O)N(C)C)c1O)NC#N | 15 nM (antagonist) | 512 nM (antagonist) | – | –
CCC(CC)(NS(=O)(=O)c1c(Cl)ccc(N/C(=N/C#N)Nc2ccccc2Br)c1O)N1CCC(N)CC1 | 22 nM (antagonist) | 188 nM (antagonist) | – | –
CN(C)S(=O)(=O)c1c(F)ccc(N/C(=N/C#N)Nc2ccccc2Br)c1O | 4 nM (antagonist) | 192 nM (antagonist) | – | –
CC(C)c1ccccc1N/C(=N\C#N)Nc1ccc(Cl)c(S(=O)(=O)N(C)C)c1O | 112 nM (antagonist) | 7290 nM | – | –
CCC(CC)(NS(=O)(=O)c1cccc(N/C(=N/C#N)Nc2ccccc2Br)c1O)N1CCOCC1 | 12 nM (antagonist) | 582 nM (antagonist) | 6.48 | –
CN(C)S(=O)(=O)c1c(Cl)ccc(N=C(NC#N)Nc2ccccc2C(F)(F)F)c1O | 12 nM (antagonist) | 411 nM (antagonist) | – | –
CCC(CC)(NS(=O)(=O)c1c(C)ccc(N=C(NC#N)Nc2ccccc2Br)c1O)N1CCOCC1 | 6 nM (antagonist) | 104 nM (antagonist) | – | –
CCC(CC)(NS(=O)(=O)c1c(Cl)ccc(N/C(=N/C#N)Nc2ccccc2Br)c1O)N1CCC[C@@H]1C(=O)O | 16 nM (antagonist) | 22 nM (antagonist) | – | –
CCC(CC)(NS(=O)(=O)c1c(Cl)ccc(N=C(NC#N)Nc2ccccc2C)c1O)N1C[C@@H](C)O[C@@H](C)C1 | 17 nM (antagonist) | 1080 nM | – | –
CN(C)S(=O)(=O)c1c(Cl)ccc(N/C(=N/C#N)Nc2cccc(Cl)c2F)c1O | – | – | – | > 200
CN(C)S(=O)(=O)c1c(Cl)ccc(N/C(=N/C#N)Nc2ccccc2OCc2ccccc2)c1O | 9 nM (antagonist) | 293 nM (antagonist) | – | –
Cc1ccccc1NC(=Nc1ccc(Cl)c(S(=O)(=O)N(C)C)c1O)NC#N | 17 nM (antagonist) | 378 nM (antagonist) | – | –

From ChEMBL document CHEMBL1139694, “N,N'-Diarylcyanoguanidines as antagonists of the CXCR2 and CXCR1 chemokine receptors” (Bioorg Med Chem Lett, 2006)
